# Values of other authors as cited in patent publication US20040247633A1, “Novel dermatological composition” (EBERSYTES, LLC, priority 2003, published 2004).
# Settings: metal chelate
smiles,measurement,value
CC(O)C(=O)[O-].CC(O)C(=O)[O-].[Cu+2] (stereo not shown) [Copper lacate],Affinity Constant,10^10-10^12
